Measured values as given in patent US6992073B2, “Use of N-acetyl-D-glucosamine in the manufacture of a medicament for treating cervical erosion” (Third Military Medical University, Chinese People's …, priority 2002, dated 2006).

Key:
cervix erosion = experiment: Clinic test in patients with cervix erosion; type: in vivo, human beings; conditions: treating group 83 cases, positive medicament control group 60 cases
Description: A spray formulation of 2% N-acetyl-D-glucosamine was applied to human beings, up to the end of August 1999, there were 123 cases of patients to be observed in total.

[1] = in vivo
Description: (§1) • 1. […] Experimental Results and Evaluation: • The experiment adopts a bio-wave model which is used to research the promoting wave function of the compound of formula (I). […] II. Toxicological Test of the Compound of Formula (I), including: • 1. acute toxicity test: including tests of administrating medicine by oral, Intravenous injection and maximum limit amount for administration; • 2. […] III. Test of Removing Pathogenic Microorganism by Resistance to Field Planting Action

[2] = system: pathogenic microorganism such as Candida albicans, vagina Heamophilus; experiment: Test of removing pathogenic microorganism by resistance to field planting action; type: cell-based; conditions: in situ bacterial field planting, qualitative and quantitative determination tests
Lactobacilli = experiment: Liquid cultivation of Lactobacilli; type: cell-based
Description: as §1

Proteus Mirabilis = experiment: Promoting wave test (bio-wave model on LB plate); type: cell-based
Description: as §1

| Compound | cured (number of cases) (cervix erosion) | effective (number of cases) (cervix erosion) | acute test dosage relative to the injection dosage for human being [1] | effect on field planting growth of pathogenic microorganism [2] | sterilizing or bacteria-inhibiting effect [2] | growth of Lactobacilli (Lactobacilli) | promoting wave function (wave pattern of concentric rings) (Proteus Mirabilis) |
| --- | --- | --- | --- | --- | --- | --- | --- |
| O=[N+]([O-])[O-].[Ag+] [AgNO3] | 5 | 8 |  |  |  |  |  |
| CC(=O)N[C@@H]1[C@@H](O)[C@H](O)[C@@H](CO)O[C@H]1O [compound of formula (I), N-acetyl-D-glucosamine] |  |  | 300 times | disabling pathogenic microorganism such as Candida albicans, vagina Heamophilus and etc. from field planting growth | substantially has no sterilizing or bacteria-inhibiting effect | can improve the growth of Lactobacilli | many fine waves on each ring emerged |
